Test results from US20200237766A1, “PKM2 ACTIVATORS IN COMBINATION WITH REACTIVE OXYGEN SPECIES FOR TREATMENT OF CANCER” (TOLERO PHARMACEUTICALS, INC., priority 2017, published 2020).
Like-named read-outs stand apart in the source and are kept apart here. Values belong to the compound of their own block, whether it stands above or below them.

Molecular target: PKM2 (Homo sapiens, UniProt P14618)
Assay: PKM2 activation biochemical assay (AC50 / max. response vs fructose 1,6-bisphosphate)
Settings: for Max. Resp. (%): % maximum response in a biochemical assay as compared with Fructose 1,6-bisphosphate
[1] = biochemical assay, read-out: PKM2 AC50

Sequence of PKM2 (P14618 whole entry): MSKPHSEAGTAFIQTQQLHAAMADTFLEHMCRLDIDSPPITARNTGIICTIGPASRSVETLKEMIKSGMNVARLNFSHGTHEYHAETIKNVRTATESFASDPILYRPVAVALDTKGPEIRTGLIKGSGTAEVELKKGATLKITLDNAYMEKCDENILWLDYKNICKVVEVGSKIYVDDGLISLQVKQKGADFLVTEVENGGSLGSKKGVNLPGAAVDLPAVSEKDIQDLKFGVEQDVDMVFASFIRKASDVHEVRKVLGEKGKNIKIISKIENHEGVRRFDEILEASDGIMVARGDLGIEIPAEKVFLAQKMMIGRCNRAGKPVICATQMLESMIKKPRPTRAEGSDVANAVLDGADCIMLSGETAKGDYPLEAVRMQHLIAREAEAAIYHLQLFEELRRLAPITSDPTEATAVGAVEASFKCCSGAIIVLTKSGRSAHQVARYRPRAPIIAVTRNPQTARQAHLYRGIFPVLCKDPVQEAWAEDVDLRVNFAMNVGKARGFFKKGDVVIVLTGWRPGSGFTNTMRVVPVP

SMILES: CN1CCN(CCN(Cc2ccccc2F)C(=O)c2cc(C(F)(F)F)n[nH]2)CC1 [Compound 103]
- AC50: 37000 nM
- Max. Resp. (%): 42%

SMILES: CN1CCN(CCN(Cc2ccccc2Cl)C(=O)c2cc(C(F)(F)F)n[nH]2)CC1 [Compound 104]
- Max. Resp. (%): 63%
- AC50 [1]: 17000 nM

SMILES: CCN1CCC(CCN(Cc2c(Cl)cccc2Cl)C(=O)c2cc(C(F)(F)F)n[nH]2)CC1 [Compound 105]
- Max. Resp. (%): 71%
- AC50 [1]: 3270 nM

SMILES: CCN1CCN(CCN(Cc2ccccc2F)C(=O)c2cc(C(F)(F)F)n[nH]2)CC1 [Compound 106]
- Max. Resp. (%): 115%
- AC50 [1]: 6300 nM

SMILES: O=C(c1cc(C(F)(F)F)n[nH]1)N(CCN1CCS(=O)(=O)CC1)Cc1ccccc1Cl [Compound 107]
- Max. Resp. (%): 85%
- AC50 [1]: 873 nM

SMILES: O=C(c1cc(C(F)(F)F)n[nH]1)N(CCN1CCS(=O)(=O)CC1)Cc1ccccc1F [Compound 108]
- AC50: 7800 nM
- Max. Resp. (%): 92%

SMILES: O=C(c1cc(C(F)(F)F)n[nH]1)N(CCN1CCS(=O)(=O)CC1)Cc1c(F)cccc1F [Compound 109]
- Max. Resp. (%): 94%
- AC50 [1]: 4200 nM

SMILES: O=C(c1cc(C(F)(F)F)n[nH]1)N(CCN1CCS(=O)(=O)CC1)Cc1c(Cl)cccc1Cl [Compound 110]
- Max. Resp. (%): 84%
- AC50 [1]: 1640 nM

SMILES: O=C(c1cc(C(F)(F)F)n[nH]1)N(CCN1CCS(=O)(=O)CC1)Cc1cccc(F)c1F [Compound 111]
- Max. Resp. (%): 64%
- AC50 [1]: 13100 nM

SMILES: Nc1cccc(CN(CCN2CCS(=O)(=O)CC2)C(=O)c2cc(C(F)(F)F)n[nH]2)c1 [Compound 112]
- Max. Resp. (%): 91%
- AC50 [1]: 1070 nM

SMILES: CC[C@](C)(N)C(=O)Oc1ccc(CN(CC2CCC2)C(=O)c2cc(Cl)n[nH]2)c(F)c1 [Compound 115]
- Max. Resp. (%): 104%
- AC50 [1]: 98 nM

SMILES: O=C(c1cc(Cl)n[nH]1)N(Cc1ccncc1F)CC1CCC1 [Compound 116]
- AC50 [1]: 38000 nM

SMILES: CN(C)Cc1c[nH]c2cccc(CN(CC3CCC3)C(=O)c3cc(Cl)n[nH]3)c12 [Compound 118]
- Max. Resp. (%): 100%
- AC50 [1]: 7000 nM

SMILES: O=C(c1cc(Cl)n[nH]1)N(Cc1cccc2[nH]cnc12)CC1CCC1 [Compound 119]
- Max. Resp. (%): 100%
- AC50 [1]: 2930 nM

- Max. Resp. (%): 100%
SMILES: O=C(c1cc(Br)n[nH]1)N(Cc1cccc2[nH]cnc12)CC1CCC1 [Compound 120]

SMILES: CNCc1c[nH]c2cccc(CN(CC3CCC3)C(=O)c3cc(Br)n[nH]3)c12 [Compound 121]
- AC50: 23000 nM

SMILES: O=C(c1cc(C(F)(F)F)n[nH]1)N(Cc1cccc2[nH]cnc12)CC1CCC1 [Compound 123]
- AC50: 828 nM
- Max. Resp. (%): 100%

SMILES: O=C(c1cc(C(F)(F)F)n[nH]1)N(Cc1ccc(O)cc1Cl)CC1CCC1 [Compound 124]
- Max. Resp. (%): 100%
- AC50 [1]: 21 nM

SMILES: O=C(c1cc(Br)n[nH]1)N(Cc1ccc(O)cc1Cl)CC1CCC1 [Compound 125]
- Max. Resp. (%): 100%
- AC50 [1]: 35 nM

SMILES: O=C(c1cc(C(F)(F)F)n[nH]1)N(Cc1ccccc1Cl)CC1CCC1 [Compound 127]
- AC50: 258 nM
- Max. Resp. (%): 100%

SMILES: O=C(c1cc(C(F)(F)F)n[nH]1)N(Cc1ccncc1Cl)CC1CCC1 [Compound 128]
- Max. Resp. (%): 75%
- AC50 [1]: 9300 nM

SMILES: O=C(c1cc(C2CC2)n[nH]1)N(CCC(F)(F)F)Cc1ccc(O)cc1F [Compound 129]
- AC50: 10500 nM

SMILES: O=C(c1cc(C(F)(F)F)n[nH]1)N(CCC(F)(F)F)Cc1ccc(O)cc1F [Compound 130]
- Max. Resp. (%): 100%
- AC50 [1]: 1000 nM

SMILES: O=C(c1cc(C(F)(F)F)n[nH]1)N(Cc1ccc(O)cc1F)C1CCCC1 [Compound 132]
- Max. Resp. (%): 100%
- AC50 [1]: 213 nM

SMILES: NCCN(Cc1ccc(O)cc1F)C(=O)c1cc(C(F)(F)F)n[nH]1 [Compound 133]
- Max. Resp. (%): 100%
- AC50 [1]: 1270 nM

SMILES: Nc1ccc(CN(CC2CCC2)C(=O)c2cc(C(F)(F)F)n[nH]2)c(Cl)c1 [Compound 134]
- Max. Resp. (%): 100%
- AC50 [1]: 1080 nM

SMILES: O=C(c1cc(C(F)(F)F)n[nH]1)N(Cc1cccc2[nH]ccc12)NC1CCC1 [Compound 135]
- Max. Resp. (%): 100%
- AC50 [1]: 68 nM

SMILES: O=C(c1cc(C(F)(F)F)n[nH]1)N(Cc1cccc(F)c1O)CC1CCC1 [Compound 136]
- Max. Resp. (%): 100%
- AC50 [1]: 380 nM

SMILES: O=C(c1cc(C(F)(F)F)n[nH]1)N(CCO)Cc1ccc(O)cc1F [Compound 137]
- Max. Resp. (%): 70%
- AC50 [1]: 6200 nM

SMILES: O=C(c1cc(C(F)(F)F)n[nH]1)N(Cc1ccc(O)cc1F)C1CCCCC1 [Compound 139]
- Max. Resp. (%): 100%
- AC50 [1]: 152 nM

SMILES: O=C(c1cc(C(F)(F)F)n[nH]1)N(CCC1CC1)Cc1ccc(O)cc1F [Compound 140]
- Max. Resp. (%): 100%
- AC50 [1]: 32 nM

SMILES: O=C(c1cc(C(F)(F)F)n[nH]1)N(Cc1cccc(Cl)c1O)CC1CCC1 [Compound 141]
- Max. Resp. (%): 100%
- AC50 [1]: 6500 nM

SMILES: COCCN(Cc1ccc(O)cc1F)C(=O)c1cc(C(F)(F)F)n[nH]1 [Compound 142]
- Max. Resp. (%): 100%
- AC50 [1]: 1190 nM
